SMILES strings stand for the structures. Converted amounts (≈) assume the structure as drawn.

This data set in a line: solubility in aqueous buffer. It counts as physicochemical. The settings on record: aqueous buffer pH 7.4, room temperature. On the procedure:
Enantiomerically pure compound (I) has low solubility in aqueous solution. In aqueous buffer pH 7.4 the solubility measured at room temperature is about 0.01 mg/ml. Poor solubility typically leads to poor oral bioavailability, fed/fasted variations in bioavailability, cumbersome and inconvenient dosage forms, and may necessitate the use of harsh solubilising agents that are associated with adverse side effects.

The solubility is the dissolved amount per volume that the medium holds. For `CCOc1cc(C(CS(C)(=O)=O)N2C(=O)c3cccc(NC(C)=O)c3C2=O)ccc1OC` (stereo not shown) [compound (I), N-[2-[1-(3-ethoxy-4-methoxyphenyl)-2-(methylsulfonyl)ethyl]-1,3-dioxo-2,3-dihydro-1H-isoindol-4-yl]acetamide], the solubility was about 10 µg/mL (≈ 21.7 µM).

(Values after patent publication US20150306226A1, “COMPOSITION” (RATIOPHARM GMBH, priority 2012, published 2015).)
